This assay concerns DIO-NASH mouse model. The experiment in a line: Biopsy-confirmed DIO-NASH (AMLN diet) mouse model, 12 weeks of daily treatment. Type of assay: in vivo. As to the method: ALT-801 was evaluated for its metabolic and anti-fibrotic effects during 12 weeks of treatment in the well-documented Amylin Liver NASH (AMLN) DIO-NASH mouse model[22],[44] at Gubra ApS. Mice had ad libitum access to tap water and a diet high in fat (40%, containing 18% trans-fat; 40% carbohydrates, 20% fructose) and 2% cholesterol (AMLN diet; D09100301, Research Diets, New Brunswick, NJ). Semaglutide (GLP-1R agonist) and elafibranor (peroxisome proliferator-activated receptor [PPAR]-α/δ agonist) were included as comparators to assess the effects of added GCGR agonism, and a previously observed modest antifibrotic effect in this assay, respectively. […]
After 29 weeks of diet induction (week-3 relative to start of treatment) a pre-treatment liver biopsy was performed as described in detail previously[44] to select animals for stratification and randomization based on histological assessment. Liver histology was scored using the NAS and fibrosis stage criteria defined by the NASH Clinical Research Network Pathology Committee[47] and only those animals with confirmed steatosis (score ≥ 2) and fibrosis (stage ≥ 1) were selected for stratification and randomization. A stratified randomization into treatment groups was performed for the biopsy-proven DIO-NASH mice according to liver collagen type 1 alpha 1 (Col1A1) quantification at week-3. […]

Turning to `CSc1ccc(C(=O)/C=C/c2cc(C)c(OC(C)(C)C(=O)O)c(C)c2)cc1` [elafibranor], where the note is “12 weeks”, the “Animals with reduction in fibrosis stage of 1 or greater compared to the start of treatment” value stood at 75%. For the setting “daily for 12 weeks, ALT-801 5 and 10 nmol/kg s.c., semaglutide 10 nmol/kg s.c., elafibranor 78 μmol/kg oral, stabilized after 2–3 weeks, n = 11–12”, the “Body weight vs. vehicle” value is given as “significant (p < 0.001) body weight decreases”.

Values taken from PMC9035150, “Effects of ALT-801, a GLP-1 and glucagon receptor dual agonist, in a translational mouse model of non-alcoholic steatohepatitis” (Scientific Reports, 2022).
